# Experimental data reported in PMC3849131, “^18 F-click labeling and preclinical evaluation of a new ^18 F-folate for PET imaging” (EJNMMI Research, 2013).
# Test system: KB tumor-bearing mice
# Experiment: Ex vivo biodistribution in human KB tumor-bearing nude mice
# Settings: for Ratio of tumor to Blood / Ratio of tumor to Kidney / Ratio of tumor to Liver / %ID/g Blood / %ID/g Bone / %ID/g Feces / %ID/g Gall bladder / %ID/g Heart / %ID/g Intestines (empty) / %ID/g Tumor / %ID/g Kidneys / %ID/g Liver / %ID/g Lung / %ID/g Muscle / %ID/g Salivary glands / %ID/g Spleen / %ID/g Stomach (empty): n = 3; for %ID/g Tumor: KB tumor
# Protocol: All animal experiments were approved by the local veterinary department and complied with Swiss and local laws on animal protection. Female CD-1 nude mice (Charles River, Sulzfeld, Germany) were fed with a folate-deficient rodent diet (Harlan Laboratories, Indianapolis, IN, USA). After an acclimatization period of 5 to 7 days, human KB tumor cells (5 × 10^6 cells in 0.1 mL sterile phosphate-buffered saline (PBS)) were inoculated subcutaneously on both shoulders of each mouse. Twelve days later, the animals were intravenously injected with [^18 F]12 (approximately 5 MBq, 100 μL). […] Animals were euthanized at the indicated time points, and selected organs and tissues were collected, weighed, and measured in a γ-counter. The incorporated radioactivity was expressed as percentage injected dose per gram (%ID/g) of tissue. PET/computed tomography (CT) experiments were performed with a dedicated small-animal PET/CT scanner (eXplore Vista PET/CT, Sedecal, Algete, Spain/GE Healthcare). Animals were intravenously injected with [^18 F]12 (approximately 13 MBq, 100 μL). For scanning, mice were anesthetized with isoflurane in an air/oxygen mixture. The PET scans were acquired from 60 to 90 min post-injection (p.i.) followed by a CT. After acquisition, PET data were reconstructed in user-defined time frames, and the fused datasets of PET and CT were analyzed with PMOD software (version 3.4).
# Biodistribution studies of the new ^18 F-folate [^18 F]12 were performed using human KB tumor-bearing nude mice, determined at 30, 60, and 90 min post-injection. […] Selective blocking of the folate receptors led to a decrease in specific radiotracer accumulation of 94% in KB tumors and 99% in kidneys (Figure 2). The strong blocking effect reflected the high specificity of the tracer to the FR in vivo. Unspecific liver uptake decreased from 5.2%ID/g to 2.1%ID/g over 90 min similar to the background radioactivity in the feces and gall bladder (Table 2), which is believed to be a beneficial effect of the increased polarity of this novel radiofolate. Compared to the biodistribution profile at 45 min post-injection of the former ^18 F-click folate by Ross and co-workers, the specific uptake of the original ^18 F-click folate in KB tumors was retained, whereas the specific kidney uptake more than doubled. This indicated a stronger tendency to renal excretion, more likely a result of the increased polarity of the new ^18 F-folate [^18 F]12. Additionally, the highest unspecific background accumulation in the gall bladder was reduced by half. This background reduction correlated with the more renal excretion and the two times lower k’ value as an indicator of lipophilicity of the here presented radiofolate. […] On the other hand, the still increased uptake levels in the gall bladder and feces were evidence of a prominent hepatobiliary elimination pathway of [^18 F]12. However, distinct changes in the molecular structure of the folate-based radioconjugate [^18 F]12 induced a higher polarity into the lead molecule ^18 F-click folate and a significant reduction of the in vivo background.
# Figure 2 Results of ex vivo biodistribution studies under control and blockade conditions using [^18 F]12 in mice. The human KB tumor-bearing nude mice were euthanized 60 min post-injection. Data are expressed as percentage injected dose per gram tissue (%ID/g).
# [1] = 60 min p.i., 100 μg native folic acid before tracer
# [2] = 60 min p.i. blockade (100 μg folic acid 5 min before tracer)
substance,measurement,setting,value
"16-(4-(((2-amino-4-oxo-3,4-dihydropteridin-6-yl)methyl)amino)benzamido)-1-(4-(2-(2-(2-[^18 F]fluoroethoxy)ethoxy)ethoxy)-1H-1,2,3-triazol-1-yl)-13-oxo-3,6,9-trioxa-12-azaheptadecan-17-oic acid [[^18 F]12]",Ratio of tumor to Blood,30 min p.i.,16.81 ± 3.13
same,Ratio of tumor to Kidney,30 min p.i.,0.08 ± 0.02
same,Ratio of tumor to Liver,30 min p.i.,0.69 ± 0.22
same,"decrease in specific radiotracer accumulation by FR blocking, KB tumors",[1],94%
same,"decrease in specific radiotracer accumulation by FR blocking, kidneys",[1],99%
same,Ratio of tumor to Blood,60 min p.i.,18.95 ± 2.68
same,Ratio of tumor to Kidney,60 min p.i.,0.08 ± 0.01
same,Ratio of tumor to Liver,60 min p.i.,0.86 ± 0.19
same,Ratio of tumor to Blood,90 min p.i.,22.72 ± 6.73
same,Ratio of tumor to Kidney,90 min p.i.,0.09 ± 0.01
same,Ratio of tumor to Liver,90 min p.i.,1.55 ± 0.15
same,%ID/g Blood,30 min p.i.,0.20 ± 0.02 %ID/g
same,%ID/g Blood,[2],0.04 ± 0.01 %ID/g
same,%ID/g Blood,60 min p.i.,0.18 ± 0.01 %ID/g
same,%ID/g Blood,90 min p.i.,0.16 ± 0.02 %ID/g
same,%ID/g Bone,30 min p.i.,1.47 ± 0.05 %ID/g
same,%ID/g Bone,[2],0.06 ± 0.06 %ID/g
same,%ID/g Bone,60 min p.i.,1.13 ± 0.21 %ID/g
same,%ID/g Bone,90 min p.i.,0.84 ± 0.16 %ID/g
same,%ID/g Feces,30 min p.i.,164.2 ± 72.5 %ID/g
same,%ID/g Feces,[2],105.5 ± 128.7 %ID/g
same,%ID/g Feces,60 min p.i.,29.48 ± 19.04 %ID/g
same,%ID/g Feces,90 min p.i.,11.36 ± 4.29 %ID/g
same,%ID/g Gall bladder,30 min p.i.,309.3 ± 187.6 %ID/g
same,%ID/g Gall bladder,[2],775.5 ± 206.5 %ID/g
same,%ID/g Gall bladder,60 min p.i.,133.2 ± 67.38 %ID/g
same,%ID/g Gall bladder,90 min p.i.,55.13 %ID/g
same,%ID/g Heart,30 min p.i.,1.81 ± 0.61 %ID/g
same,%ID/g Heart,[2],0.02 ± 0.01 %ID/g
same,%ID/g Heart,60 min p.i.,1.09 ± 0.07 %ID/g
same,%ID/g Heart,90 min p.i.,0.79 ± 0.16 %ID/g
same,%ID/g Intestines (empty),30 min p.i.,23.52 ± 7.37 %ID/g
same,%ID/g Intestines (empty),[2],14.72 ± 19.32 %ID/g
same,%ID/g Intestines (empty),60 min p.i.,4.56 ± 2.31 %ID/g
same,%ID/g Intestines (empty),90 min p.i.,1.92 ± 0.52 %ID/g
same,%ID/g Tumor,30 min p.i.,3.4 %ID/g
same,%ID/g Tumor,"30 min p.i., listed as 12",3.39 ± 0.54 %ID/g
same,%ID/g Tumor,[2],0.19 ± 0.07 %ID/g
same,%ID/g Tumor,60 min p.i.,3.39 ± 0.44 %ID/g
same,%ID/g Tumor,90 min p.i.,3.54 ± 0.68 %ID/g
same,%ID/g Kidneys,30 min p.i.,42 %ID/g
same,%ID/g Kidneys,"30 min p.i., listed as 12",41.80 ± 2.58 %ID/g
same,%ID/g Kidneys,[2],0.26 ± 0.08 %ID/g
same,%ID/g Kidneys,60 min p.i.,40.77 ± 4.34 %ID/g
same,%ID/g Kidneys,90 min p.i.,41.04 ± 7.04 %ID/g
same,%ID/g Liver,30 min p.i.,5.2 %ID/g
same,%ID/g Liver,"30 min p.i., listed as 12",5.24 ± 1.57 %ID/g
same,%ID/g Liver,[2],0.21 ± 0.09 %ID/g
same,%ID/g Liver,60 min p.i.,4.05 ± 0.67 %ID/g
same,%ID/g Liver,90 min p.i.,2.1 %ID/g
same,%ID/g Liver,"90 min p.i., listed as 12",2.30 ± 0.54 %ID/g
same,%ID/g Lung,30 min p.i.,1.21 ± 0.15 %ID/g
same,%ID/g Lung,[2],0.04 ± 0.03 %ID/g
same,%ID/g Lung,60 min p.i.,1.02 ± 0.7 %ID/g
same,%ID/g Lung,90 min p.i.,0.86 ± 0.17 %ID/g
same,%ID/g Muscle,30 min p.i.,1.91 ± 0.25 %ID/g
same,%ID/g Muscle,[2],0.08 ± 0.09 %ID/g
same,%ID/g Muscle,60 min p.i.,1.64 ± 0.46 %ID/g
same,%ID/g Muscle,90 min p.i.,1.17 ± 0.03 %ID/g
same,%ID/g Salivary glands,30 min p.i.,8.01 ± 1.16 %ID/g
same,%ID/g Salivary glands,[2],0.20 ± 0.18 %ID/g
same,%ID/g Salivary glands,60 min p.i.,9.28 ± 1.68 %ID/g
same,%ID/g Salivary glands,90 min p.i.,7.03 ± 1.98 %ID/g
same,%ID/g Spleen,30 min p.i.,0.53 ± 0.14 %ID/g
same,%ID/g Spleen,[2],0.06 ± 0.03 %ID/g
same,%ID/g Spleen,60 min p.i.,0.49 ± 0.04 %ID/g
same,%ID/g Spleen,90 min p.i.,0.43 ± 0.08 %ID/g
same,%ID/g Stomach (empty),30 min p.i.,2.18 ± 0.76 %ID/g
same,%ID/g Stomach (empty),[2],0.12 ± 0.11 %ID/g
same,%ID/g Stomach (empty),60 min p.i.,1.39 ± 0.13 %ID/g
same,%ID/g Stomach (empty),90 min p.i.,0.96 ± 0.37 %ID/g
